The source of these data is patent publication US9765037B2, “Compositions and methods for treating toxoplasmosis, cryptosporidiosis, and other apicomplexan protozoan related diseases” (University of Washington Through its Center for …, priority 2010, dated 2017).

The target in series [1] is PfCDPK1 (Plasmodium falciparum (isolate 3D7), UniProt P62344). In words: biochemical. The following applies: for inhibition at 3 µM: read-out: PfCDPK1 (% inhibition @ 3 uM).
In series [2] the target is CpCDPK1 (Cryptosporidium parvum (strain Iowa II), UniProt A3FQ16). In words: biochemical. The series is classed as biochemical. Particulars: for IC50: read-out: IC50 (μM) CpCDPK1; for pIC50: read-out: CpCDPK1 IC50.
CpCDPK1, sequence (A3FQ16 1-538): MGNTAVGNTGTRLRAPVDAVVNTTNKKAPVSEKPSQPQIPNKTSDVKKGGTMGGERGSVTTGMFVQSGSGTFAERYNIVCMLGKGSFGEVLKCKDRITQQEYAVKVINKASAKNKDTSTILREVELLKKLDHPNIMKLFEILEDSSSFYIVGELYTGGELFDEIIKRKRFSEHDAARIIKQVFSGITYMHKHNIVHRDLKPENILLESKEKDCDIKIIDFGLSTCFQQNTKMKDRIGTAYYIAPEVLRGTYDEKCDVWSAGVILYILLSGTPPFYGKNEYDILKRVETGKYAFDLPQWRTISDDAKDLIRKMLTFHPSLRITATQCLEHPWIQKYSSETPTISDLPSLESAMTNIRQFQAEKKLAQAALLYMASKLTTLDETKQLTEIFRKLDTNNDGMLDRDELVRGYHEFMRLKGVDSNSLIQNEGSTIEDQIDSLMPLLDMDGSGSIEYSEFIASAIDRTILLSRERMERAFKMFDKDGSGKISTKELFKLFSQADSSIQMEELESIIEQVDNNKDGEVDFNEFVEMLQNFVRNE
In series [3] the target is PfCDPK4 (Plasmodium falciparum (isolate 3D7), UniProt Q8IBS5). In words: biochemical. Particulars: for inhibition at 3 µM: read-out: PfCDPK4 (% inhibition @ 3 uM).
In series [4] the target is TgCDPK1 (Toxoplasma gondii, UniProt Q9BJF5). The series is classed as biochemical. Particulars: for IC50: read-out: IC50 (μM) TgCDPK1; for pIC50: read-out: TgCDPK1 IC50.
TgCDPK1, sequence (Q9BJF5 1-507): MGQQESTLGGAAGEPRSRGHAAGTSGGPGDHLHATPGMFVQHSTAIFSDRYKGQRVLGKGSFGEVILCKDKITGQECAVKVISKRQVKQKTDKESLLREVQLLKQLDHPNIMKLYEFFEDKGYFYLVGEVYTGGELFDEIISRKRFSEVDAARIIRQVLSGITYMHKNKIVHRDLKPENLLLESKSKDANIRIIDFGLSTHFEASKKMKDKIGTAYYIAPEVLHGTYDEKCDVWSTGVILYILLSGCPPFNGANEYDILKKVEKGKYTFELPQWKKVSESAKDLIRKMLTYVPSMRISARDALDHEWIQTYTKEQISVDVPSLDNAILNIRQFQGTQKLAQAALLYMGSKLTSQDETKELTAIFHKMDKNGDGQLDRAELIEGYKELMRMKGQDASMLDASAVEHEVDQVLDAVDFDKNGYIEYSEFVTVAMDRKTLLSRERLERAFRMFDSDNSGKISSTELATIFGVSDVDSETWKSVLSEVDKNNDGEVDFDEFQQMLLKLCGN
A short description of series [5]: Solubility in buffers of various pH. Particulars: pH 6.5, aqueous buffer, read-out: Experimental Solubility pH 6.5. The series is classed as physicochemical.

SMILES strings stand for the structures. pEC50, pIC50: −log10 of the molar value. Values after ≈ are worked out from the molar mass of the structure shown. Where two headings read alike, the source gives them in different places.

What is called inhibition is the drop in the measured response relative to a control, in per cent. By IC50 is commonly meant the midpoint of a concentration-inhibition curve. For `CSc1cccc(-c2nn(C(C)C)c3ncnc(N)c23)c1` [Compound 7ab, 1-isopropyl-3-(3-(methylthio)phenyl)-1H-pyrazolo[3,4-d]pyrimidin-4-amine], the results for the inhibition at 3 µM in series [1] and in series [3] were 85% and 79%, respectively. For the same compound, the IC50 was 0.121 µM in series [2] and 0.056 µM in series [4].
As usually defined, the pEC50 is the negative decadic logarithm of the EC50, by convention in mol/L. The low end stands for a high EC50, the high end for a low EC50. A word on the pIC50: it is the IC50 on a negative log10 scale, so that one unit is a factor of ten. On to `COc1ccc(-c2nn(C(C)C)c3ncnc(N)c23)cc1OC` [Compound 7k, 3-(3,4-dimethoxyphenyl)-1-isopropyl-1H-pyrazolo[3,4-d]pyrimidin-4-amine], for which the negative-log EC50 (pEC50) is 5.87 in series [1] and less than 5.52 in series [3]. Also, in series [2] (Table 8), the IC50 came out at 0.173 µM. The results for the pIC50 in series [2] and in series [4] were 6.77 and 7.43, respectively.
Turning to `COc1cc(-c2nn(C(C)C)c3ncnc(N)c23)cc(OC)c1OC` [Compound 7l, 1-isopropyl-3-(3,4,5-trimethoxyphenyl)-1H-pyrazolo[3,4-d]pyrimidin-4-amine], the inhibition at 3 µM in series [1] is 85%; in series [3], 31%. Also, the “selectivity TgCDPK1 versus CpCDPK1 (in words)” value in series [2] is reported as “equipotent or slightly selective for CpCDPK1”. For the same compound, the values for the pIC50 in series [2] and in series [4] were 7.03 and 6.38, respectively.
For `CC(C)n1nc(-c2ccc3c(c2)OCO3)c2c(N)ncnc21` [Compound 7u, 3-(benzo[d][1,3]dioxol-5-yl)-1-isopropyl-1H-pyrazolo[3,4-d]pyrimidin-4-amine], the negative-log EC50 (pEC50) in series [1] was 6.37; in series [3] it was 5.96. In addition, the IC50 in series [2] worked out at 0.312 µM; in series [4], 0.045 µM.
Regarding `CC(C)c1nc(-c2ccc3ccccc3c2)c2c(N)nccn12` [Compound 8, 3-isopropyl-1-(naphthalen-2-yl)imidazo[1,5-a]pyrazin-8-amine], the results for the negative-log EC50 (pEC50) in series [1] and in series [3] were 6.81 and 7.04, respectively. Besides, the IC50 is 0.0078 µM in series [2] (Table 8) and 0.0048 µM in series [4].
On to `Nc1ncnc2c1c(Cc1cccc3ccccc13)nn2C1CCOCC1` [Compound 15, 3-(naphthalen-1-ylmethyl)-1-(tetrahydro-2H-pyran-4-yl)-1H-pyrazolo[3,4-d]pyrimidin-4-amine], for which the figures for the IC50 in series [2] (Table 8) and in series [4] were 0.265 µM and 0.149 µM, respectively.
Taken in the same sequence, the figures for `CC(C)n1nc(-c2cccnc2)c2c(N)ncnc21` [Compound 16, 1-isopropyl-3-(pyridin-3-yl)-1H-pyrazolo[3,4-d]pyrimidin-4-amine] were greater than 3 µM and 0.961 µM.
On the same counts, the results for `CC(C)n1nc(-c2cncnc2)c2c(N)ncnc21` [Compound 18, 1-isopropyl-3-(pyrimidin-5-yl)-1H-pyrazolo[3,4-d]pyrimidin-4-amine] are greater than 3 µM and greater than 3 µM.
On the same counts, the results for `CC(C)n1nc(-c2ccnc(Cl)c2)c2c(N)ncnc21` [Compound 19, 3-(2-chloropyridin-4-yl)-1-isopropyl-1H-pyrazolo[3,4-d]pyrimidin-4-amine] are 0.37 µM and 0.0638 µM.
With `CC(C)n1nc(-c2cccc(OCc3ccccc3Cl)c2)c2c(N)ncnc21` [Compound 21, 3-(3-(2-chlorobenzyloxy)phenyl)-1-isopropyl-1H-pyrazolo[3,4-d]pyrimidin-4-amine], the IC50 in series [2] (Table 8) and in series [4] was greater than 3 µM each time.
`COc1cc(COc2cccc(-c3nn(C(C)C)c4ncnc(N)c34)c2)cc(OC)c1` [Compound 22, 3-(3-(3,5-dimethoxybenzyloxy)phenyl)-1-isopropyl-1H-pyrazolo[3,4-d]pyrimidin-4-amine]: the IC50 is greater than 3 µM in series [2] (Table 8) and 1.14 µM in series [4].
Taken in the same sequence, the figures for `COc1ccc(-c2nn(C(C)C)c3ncnc(N)c23)cc1OC(C)C` [Compound 23, 3-(3-isopropoxy-4-methoxyphenyl)-1-isopropyl-1H-pyrazolo[3,4-d]pyrimidin-4-amine] were greater than 3 µM and greater than 3 µM.
Regarding `COc1ccc2[nH]c(-c3nn(C(C)C)c4ncnc(N)c34)cc2c1` [Compound 27, 1-isopropyl-3-(5-methoxy-1H-indol-2-yl)-1H-pyrazolo[3,4-d]pyrimidin-4-amine], the figures for the pEC50 in series [1] and in series [3] were 6.06 and less than 5.52, respectively. The concentration for half-maximal inhibition (IC50) in series [2] (Table 8) amounted to 0.623 µM; in series [4] it was 0.0569 µM.
`Nc1ncnc2c1c(Cc1cccc3ccccc13)nn2Cc1c[nH]cn1` [Compound 31, 1-((1H-imidazol-4-yl)methyl)-3-(naphthalen-1-ylmethyl)-1H-pyrazolo[3,4-d]pyrimidin-4-amine]: the IC50 in series [2] (Table 8) was determined as 0.0936 µM; in series [4], 0.117 µM.
A word on the solubility: it is the concentration that dissolves in the medium under given conditions. Consider `Nc1ncnc2c1c(-c1ccc(Cl)cc1)nn2CC1CCNCC1` [Compound 45, 3-(4-chlorophenyl)-1-(piperidin-4-ylmethyl)-1H-pyrazolo[3,4-d]pyrimidin-4-amine], for which the pEC50 was 7.25 in series [1] and 6.46 in series [3]. The solubility in series [5] (buffer) stood at 62 µM (≈ 21.3 µg/mL).
Take `CC(C)(C)n1nc(-c2ccc(NC(=O)CCl)cc2)c2c(N)ncnc21` [Compound 58, N-(4-(4-amino-1-tert-butyl-1H-pyrazolo[3,4-d]pyrimidin-3-yl)phenyl)-2-chloroacetamide]: the pEC50 was 6.67 in series [1] and 5.61 in series [3]. Besides, the values for the half-inhibitory concentration (IC50) in series [2] (Table 8) and in series [4] were 0.588 µM and 0.136 µM, respectively.
On the same counts, the results for `CC(C)C(=O)Nc1ccc(-c2nn(C(C)(C)C)c3ncnc(N)c23)cc1` [Compound 59, N-(4-(4-amino-1-tert-butyl-1H-pyrazolo[3,4-d]pyrimidin-3-yl)phenyl)isobutyramide] are 6.96, 6.34, 0.832 µM and 0.0997 µM.
Taken in the same sequence, the figures for `CC(C)(C)C(=O)Nc1ccc(-c2nn(C(C)(C)C)c3ncnc(N)c23)cc1` [Compound 60, N-(4-(4-amino-1-tert-butyl-1H-pyrazolo[3,4-d]pyrimidin-3-yl)phenyl)pivalamide] were 7.18, 6.49, 0.929 µM and 0.0666 µM.
Taken in the same sequence, the figures for `CCCC(=O)Nc1ccc(-c2nn(C(C)(C)C)c3ncnc(N)c23)cc1` [Compound 61, N-(4-(4-amino-1-tert-butyl-1H-pyrazolo[3,4-d]pyrimidin-3-yl)phenyl)butyramide] were 7.15, 6.29, 0.927 µM and 0.0684 µM.
As for `CC(C)CC(=O)Nc1ccc(-c2nn(C(C)(C)C)c3ncnc(N)c23)cc1` [Compound 62, N-(4-(4-amino-1-tert-butyl-1H-pyrazol[3,4-d]pyrimidin-3-yl)phenyl)-3-methylbutanamide], the values for the pEC50 in series [1] and in series [3] were 7.42 and 6.85, respectively. In addition, the half-inhibitory concentration (IC50) in series [2] (Table 8) came to 0.692 µM; in series [4], 0.0409 µM.
Turning to `CC(C)(C)n1nc(-c2ccc(NC(=O)C3CCCC3)cc2)c2c(N)ncnc21` [Compound 63, N-(4-(4-amino-1-tert-butyl-1H-pyrazolo[3,4-d]pyrimidin-3-yl)phenyl)cyclopentanecarboxamide], the pEC50 in series [1] is 7.93; in series [3], 6.87. Further, the figures for the IC50 in series [2] (Table 8) and in series [4] were 0.417 µM and 0.0462 µM, respectively.
For `CC(C)(C)n1nc(-c2ccc(NC(=O)C3CCCCC3)cc2)c2c(N)ncnc21` [Compound 64, N-(4-(4-amino-1-tert-butyl-1H-pyrazolo[3,4-d]pyrimidin-3-yl)phenyl)cyclohexanecarboxamide], the pEC50 was 6.89 in series [1] and 5.97 in series [3]. Besides, the IC50 came to 0.928 µM in series [2] (Table 8) and 0.143 µM in series [4].
As to `CC(C)(C)n1nc(-c2ccc(NC(=O)c3ccccc3)cc2)c2c(N)ncnc21` [Compound 65, N-(4-(4-amino-1-tert-butyl-1H-pyrazolo[3,4-d]pyrimidin-3-yl)phenyl)benzamide], the negative-log EC50 (pEC50) is 6.99 in series [1] and 5.54 in series [3]. Besides, the IC50 in series [2] (Table 8) was determined as 1.16 µM; in series [4] it was 0.171 µM.
On the same counts, the results for `CC(C)(C)n1nc(-c2ccc(NC(=O)Cc3ccccc3)cc2)c2c(N)ncnc21` [Compound 66, N-(4-(4-amino-1-tert-butyl-1H-pyrazolo[3,4-d]pyrimidin-3-yl)phenyl)-2-phenylacetamide] are 6.54, 5.66, 2.02 µM and 0.178 µM.
Taken in the same sequence, the figures for `CCC(=O)Nc1ccc(-c2nn(C(C)(C)C)c3ncnc(N)c23)cc1` [Compound 67, N-(4-(4-amino-1-tert-butyl-1H-pyrazolo[3,4-d]pyrimidin-3-yl)phenyl)propionamide] were 6.49, 5.70, 0.822 µM and 0.196 µM.
Consider `Cc1cc(-c2nn(CC3CCNCC3)c3ncnc(N)c23)ccc1-c1ccccc1` [Compound 118], for which the pEC50 in series [1] and in series [3] was 6.29 in each case. Moreover, in series [5] (buffer), the solubility was found to be 40 µM (≈ 15.9 µg/mL).
Regarding `Nc1ncnc2c1c(-c1ccc3ncccc3c1)nn2CC1CCNCC1` [Compound 125], the figures for the pEC50 in series [1] and in series [3] were 5.96 and 6.95, respectively. Also, the solubility in series [5] (buffer) stood at 54 µM (≈ 19.4 µg/mL).
For the compound `Cc1cccc(-c2nn(C(C)(C)C)c3ncnc(N)c23)c1` [Compound 134], the solubility in series [5] (buffer) amounted to 19.3 µM (≈ 5.43 µg/mL).
Still for that read-out and setting: next, `CCOc1ccc2cc(-c3nn(C4CCNCC4)c4ncnc(N)c34)ccc2c1` [Compound 138]: 51 µM (≈ 19.8 µg/mL).
The same measure, in the same setting: next, `CC(C)(C)n1nc(-c2ccc3ncccc3c2)c2c(N)ncnc21` [Compound 143]: 17 µM (≈ 5.41 µg/mL); `COc1ccc(-c2nn(CC3CCNCC3)c3ncnc(N)c23)cc1C` [Compound 144]: 60 µM (≈ 21.1 µg/mL).
In the case of `CC(C)(C)n1nc(-c2ccc(Cl)cc2)c2c(N)ncnc21` [Compound 146], the solubility in series [5] was determined as 9 µM (≈ 2.72 µg/mL).
